Test results: the NIST ThermoML archive (doi:10.1016/j.jct.2010.04.006)
Numbers after ± are expanded uncertainties.

What was measured:
[1] = Molar enthalpy of transition or fusion; settings: Crystal; DSC
[2] = Crystal; DTA

Molar enthalpy of transition or fusion [1]: 4.48 ± 0.136 kcal/mol
Normal melting temperature [2]: 125.71 ± 0.5 °C
SMILES: O=C1Cc2ccccc2N1 [indolin-2-one]
